# Biological target: T1, hSK1 channels (Homo sapiens, UniProt Q92952)
# T1 construct: expressed in transfected cells; host or cells: HEK293
# Test: whole-cell patch-clamp recording of ionic current through SK channels (subtype 1) in HEK293 cells expressing hSK1
# Type: cell-based
# Conditions: Stimulating Concentration required for increasing the baseline current by 100%
# Protocol: The ionic current through small-conductance Ca^2+-activated K^+ channels (SK channels, subtype 1) is recorded using the whole-cell configuration of the patch-clamp technique in a classic patch-clamp set-up using HEK293 tissue culture cells expressing hSK1 channels as described in e.g. WO 2006/100212.
# The SC100 value determined is defined as the Stimulating Concentration required for increasing the baseline current by 100%. The below SC100 values are an indication of the SK1 activating properties of the compounds of the invention.
row,SC100 [µM],Structure (SMILES)
1,0.02,"CON=CNc1nc2nccc(C(C)Oc3ccccc3C)n2n1 (centres unmarked) [Example 1, N-{7-[1-(2-Methylphenoxy)ethyl]-[1,2,4]triazolo[1,5-a]pyrimidin-2-yl}-N′-methoxy-formamidine]"
2,0.20,"CON=CNc1nc2nccc(C(C)Oc3ccccc3)n2n1 (centres unmarked) [Example A, N-{7-[1-(Phenoxy)ethyl]-[1,2,4]triazolo[1,5-a]pyrimidin-2-yl}-N′-methoxy-formamidine]"

# Reference: patent US8765770B2, “Substituted [1,2,4]triazolo[1,5-a]pyrimidines and their use as potassium channel modulators” (Ataxion, Inc., priority 2009, dated 2014)
